Measurements from patent publication US10125139B2, “Pesticidally active polycyclic derivatives with sulfur substituted five-membered ring heterocycles” (Syngenta Participations AG, priority 2015, dated 2018).

Experiments:
[1] = test system: Euschistus heros (Neotropical Brown Stink Bug); assay: Example B3: Euschistus heros, sprayed soybean leaves, N2 nymphs; type: in vivo; conditions: 120 h, application rate of 200 ppm, 5 days after infestation, read-out: effect in at least one of the two categories (mortality or growth inhibition)
Method: Example B3: Euschistus heros (Neotropical Brown Stink Bug)
Soybean leaves on agar in 24-well microtiter plates were sprayed with aqueous test solutions prepared from 10,000 ppm DMSO stock solutions. After drying the leaves were infested with N2 nymphs. The samples were assessed for mortality and growth inhibition in comparison to untreated samples 5 days after infestation. The following compounds gave an effect of at least 80% in at least one of the two categories (mortality or growth inhibition) at an application rate of 200 ppm: […]

[2] = test system: Plutella xylostella (Diamond Back Moth); assay: Example B8: Plutella xylostella, artificial diet, L2 larvae; type: in vivo; conditions: for percent effect (mortality or growth inhibition) at 200 ppm: Plutella xylostella, 120 h, application rate of 200 ppm, 5 days after infestation, L2 larvae, read-out: effect in at least one of the two categories (mortality or growth inhibition)
Method: Example B8: Plutella xylostella (Diamond Back Moth)
(§1) 24-well microtiter plates with artificial diet were treated with aqueous test solutions prepared from 10,000 ppm DMSO stock solutions by pipetting. After drying, the plates were infested with L2 larvae (10 to 15 per well). The samples were assessed for mortality and growth inhibition in comparison to untreated samples 5 days after infestation. The following compounds gave an effect of at least 80% in at least one of the two categories (mortality or growth inhibition) at an application rate of 200 ppm:
(§2) Insecticidal action against Diabrotica balteata (Corn root worm), Plutella xylostella (Diamond black moth), and Spodoptera littoralis (Egyptian cotton leaf worm). The tests were carried out as described in biological examples B2, B8 and B9, respectively, with the larval feeding/contact activity (mortality only) being reported as Breakpoint (BP80) values in parts per million (i.e. the lowest concentration which gives 80% larval mortality).

[3] = test system: Myzus persicae (Green Peach Aphid); assay: Example B5: Myzus persicae feeding/contact activity, sunflower leaf discs; type: in vivo; conditions: foliar, 144 h, application rate of 200 ppm, 6 days after infestation
Method: Example B5: Myzus persicae (Green Peach Aphid): Feeding/Contact Activity
(§3) Sunflower leaf discs were placed onto agar in a 24-well microtiter plate and sprayed with aqueous test solutions prepared from 10,000 ppm DMSO stock solutions. After drying, the leaf discs were infested with an aphid population of mixed ages. The samples were assessed for mortality 6 days after infestation.

[4] = test system: Spodoptera littoralis (Egyptian Cotton Leaf Worm); assay: Example B9: Spodoptera littoralis, cotton leaf discs, L1 larvae; type: in vivo; conditions: for percent control (mortality, anti-feedant effect or growth inhibition) at 200 ppm: Spodoptera littoralis, foliar, 72 h, application rate of 200 ppm, 3 days after infestation, L1 larvae
Method: Example B9: Spodoptera littoralis (Egyptian Cotton Leaf Worm)
Cotton leaf discs were placed onto agar in 24-well microtiter plates and sprayed with aqueous test solutions prepared from 10,000 ppm DMSO stock solutions. After drying the leaf discs were infested with five L1 larvae. The samples were assessed for mortality, anti-feeding effect, and growth inhibition in comparison to untreated samples 3 days after infestation. Control of Spodoptera littoralis by a test sample is given when at least one of the categories mortality, anti-feedant effect, and growth inhibition is higher than the untreated sample.
as §2

[5] = test system: Spodoptera littoralis (Egyptian Cotton Leaf Worm); assay: Example B10: Spodoptera littoralis systemic activity, lettuce grown on treated agar; type: in vivo; conditions: 144 h, test rate of 12.5 ppm, 6 days after infestation, read-out: effect in at least one of the three categories (mortality, anti-feeding, or growth inhibition)
Text: Example B10: Spodoptera littoralis (Egyptian Cotton Leaf Worm) Systemic Activity
Test compounds were applied by pipette from 10,000 ppm DMSO stock solutions into 24-well plates and mixed with agar. Lettuce seeds were placed onto the agar and the multi well plate was closed by another plate which contained also agar. After 7 days the compound was absorbed by the roots and the lettuce grew into the lid plate. The lettuce leaves were then cut off into the lid plate. Spodoptera eggs were pipetted through a plastic stencil onto a humid gel blotting paper and the lid plate was closed with it. The samples were assessed for mortality, anti-feedant effect and growth inhibition in comparison to untreated samples 6 days after infestation. The following compounds gave an effect of at least 80% in at least one of the three categories (mortality, anti-feeding, or growth inhibition) at a test rate of 12.5 ppm: […]

[6] = test system: Diabrotica balteata (Corn Root Worm); assay: Example B2: Diabrotica balteata, sprayed maize sprouts, L2 larvae; type: in vivo; conditions: for percent effect (mortality or growth inhibition) at 200 ppm: Diabrotica balteata, 96 h, application rate of 200 ppm, 4 days after infestation, L2 larvae, read-out: effect in at least one of the two categories (mortality or growth inhibition)
Method: Example B2: Diabrotica balteata (Corn Root Worm)
as §1, with “Maize sprouts placed onto an agar layer in 24-well” for “24-well”, “plates” for “plates with artificial diet”, “spraying.” for “pipetting.”, “(6” for “(10”, “10” for “15”, “4” for “5”
as §2

[7] = test system: Bemisia tabaci (Cotton White Fly); assay: Example B1: Bemisia tabaci feeding/contact activity, cotton leaf discs; type: in vivo; conditions: foliar, 144 h, application rate of 200 ppm, 6 days after incubation, adult white flies
Method: Example B1: Bemisia tabaci (Cotton White Fly): Feeding/Contact Activity
Cotton leaf discs were placed on agar in 24-well microtiter plates and sprayed with aqueous test solutions prepared from 10,000 ppm DMSO stock solutions. After drying the leaf discs were infested with adult white flies. The samples were checked for mortality 6 days after incubation.

[8] = test system: Thrips tabaci (Onion thrips); assay: Example B12: Thrips tabaci feeding/contact activity, sunflower leaf discs; type: in vivo; conditions: foliar, 144 h, application rate of 200 ppm, 6 days after infestation
Method: Example B12: Thrips tabaci (Onion thrips) Feeding/Contact Activity
as §3, with “on” for “onto”, “in” for “in a”, “plates” for “plate”, “drying” for “drying,”, “a thrips” for “an aphid”

[9] = test system: Frankliniella occidentalis (Western Flower thrips); assay: Example B4: Frankliniella occidentalis feeding/contact activity, sunflower leaf discs; type: in vivo; conditions: foliar, 168 h, application rate of 200 ppm, 7 days after infestation, population of mixed ages
Method: Example B4: Frankliniella occidentalis (Western Flower thrips): Feeding/Contact Activity
Sunflower leaf discs were placed on agar in 24-well microtiter plates and sprayed with aqueous test solutions prepared from 10,000 DMSO stock solutions. After drying the leaf discs were infested with a Frankliniella population of mixed ages. The samples were assessed for mortality 7 days after infestation.

[10] = test system: Myzus persicae (Green Peach Aphid); assay: Example B6: Myzus persicae systemic activity, pea seedling roots in test solution; type: in vivo; conditions: 144 h, test rate of 24 ppm, 6 days after placing seedlings into test solutions
Method: Example B6: Myzus persicae (Green Peach Aphid). Systemic Activity
Roots of pea seedlings infested with an aphid population of mixed ages were placed directly into aqueous test solutions prepared from 10,000 DMSO stock solutions. The samples were assessed for mortality 6 days after placing seedlings into test solutions.

Structure (SMILES) | percent effect (mortality or growth inhibition) at 200 ppm [1] | percent effect (mortality or growth inhibition) at 200 ppm [2] | mortality at 200 ppm [3] | percent control (mortality, anti-feedant effect or growth inhibition) at 200 ppm [4] | percent effect (mortality, anti-feeding or growth inhibition) at 12.5 ppm [5] | percent effect (mortality or growth inhibition) at 200 ppm [6] | melting point | mortality at 200 ppm [7] | mortality at 200 ppm [8] | mortality at 200 ppm [9] | other results
CCS(=O)(=O)c1cc(-c2ccc(C(F)(F)F)cc2)sc1-c1nc2cc(C(F)(F)F)ncc2n1C [Example P-1, 2-[3-ethylsulfonyl-5-[4-(trifluoromethyl)phenyl]-2-thienyl]-3-methyl-6-(trifluoromethyl)imidazo[4,5-c]pyridine] | ≥ 80% | ≥ 80% | ≥ 80% | ≥ 80% | ≥ 80% | ≥ 80% |  |  |  |  | BP80 (Breakpoint, lowest concentration which gives 80% larval mortality) Plutella xylostella ([2]; larval feeding/contact activity, mortality only, test as in B8): 0.8 ppm; BP80 (Breakpoint, lowest concentration which gives 80% larval mortality) Spodoptera littoralis ([4]; larval feeding/contact activity, mortality only, test as in B9): 0.8 ppm; BP80 (Breakpoint, lowest concentration which gives 80% larval mortality) Diabrotica balteata ([6]; larval feeding/contact activity, mortality only, test as in B2): 0.8 ppm
CCSc1cc(-c2ccc(Cl)cc2)sc1-c1nc2cc(C(F)(F)F)nnc2n1C [Example P-17, 6-[5-(4-chlorophenyl)-3-ethylsulfanyl-2-thienyl]-7-methyl-3-(trifluoromethyl)imidazo[4,5-c]pyridazine] |  |  |  |  |  |  | 205 to 207 °C |  |  |  | 
CCSc1cc(I)sc1-c1nc2cc(C(F)(F)F)ncc2n1C [Example I-12, 2-(3-ethylsulfanyl-5-iodo-2-thienyl)-3-methyl-6-(trifluoromethyl)imidazo[4,5-c]pyridine] |  |  |  |  |  |  | 61 to 63 °C |  |  |  | 
CCS(=O)(=O)c1nc(-n2ccc(C(F)(F)F)n2)sc1-c1nc2cc(C(F)(F)F)ncc2n1C [Example P-10, 4-ethylsulfonyl-5-[3-methyl-6-(trifluoromethyl)imidazo[4,5-c]pyridin-2-yl]-2-[3-(trifluoromethyl)pyrazol-1-yl]thiazole] | ≥ 80% |  | ≥ 80% | ≥ 80% | ≥ 80% | ≥ 80% |  | ≥ 80% | ≥ 80% | ≥ 80% | 
CCS(=O)(=O)c1ncsc1-c1nc2cc(C(F)(F)F)ncc2n1C [Example I-2] |  |  |  |  |  |  | 169 to 171 °C |  |  |  | 
CCSc1nc(-c2ncccn2)sc1-c1nc2cc(C(F)(F)F)ncc2n1C [Example P-11] |  |  |  |  |  |  | 230 to 232 °C |  |  |  | 
CCS(=O)(=O)c1nc(-c2ncccn2)sc1-c1nc2cc(C(F)(F)F)ncc2n1C [Example P-9, 4-ethylsulfonyl-5-[3-methyl-6-(trifluoromethyl)imidazo[4,5-c]pyridin-2-yl]-2-pyrimidin-2-yl-thiazole] |  |  |  |  |  |  |  |  |  |  | mortality at 24 ppm [10]: ≥ 80%
CCS(=O)(=O)c1cc(I)sc1-c1nc2cc(C(F)(F)F)nnc2n1C [Example I-6, 6-(3-ethylsulfonyl-5-iodo-2-thienyl)-7-methyl-3-(trifluoromethyl)imidazo[4,5-c]pyridazine] |  | ≥ 80% |  | ≥ 80% | ≥ 80% | ≥ 80% |  |  |  |  | 
CCS(=O)(=O)c1cc(-c2ccc(Cl)cc2)sc1-c1nc2cc(C(F)(F)F)nnc2n1C [Example P-18, 6-[5-(4-chlorophenyl)-3-ethylsulfonyl-2-thienyl]-7-methyl-3-(trifluoromethyl)imidazo[4,5-c]pyridazine] | ≥ 80% | ≥ 80% | ≥ 80% | ≥ 80% | ≥ 80% | ≥ 80% |  | ≥ 80% | ≥ 80% | ≥ 80% | 
CCS(=O)(=O)c1nc(Br)sc1-c1nc2cc(C(F)(F)F)ncc2n1C [Example I-4, 2-bromo-4-ethylsulfonyl-5-[3-methyl-6-(trifluoromethyl)imidazo[4,5-c]pyridin-2-yl]thiazole] |  |  |  |  |  |  | 248 to 250 °C |  |  |  | 
CCS(=O)(=O)c1cc(-c2ccc(Cl)cc2)sc1-c1nc2cc(C(F)(F)F)ncc2n1C [Example P-5, 2-[5-(4-chlorophenyl)-3-ethylsulfonyl-2-thienyl]-3-methyl-6-(trifluoromethyl)imidazo[4,5-c]pyridine] | ≥ 80% | ≥ 80% | ≥ 80% | ≥ 80% | ≥ 80% | ≥ 80% |  | ≥ 80% | ≥ 80% | ≥ 80% | 
CCS(=O)(=O)c1nc(-c2ccc(Cl)cc2)sc1-c1nc2cc(C(F)(F)F)ncc2n1C [Example P-4, 2-(4-chlorophenyl)-4-ethylsulfonyl-5-[3-methyl-6-(trifluoromethyl)imidazo[4,5-c]pyridin-2-yl]thiazole] | ≥ 80% | ≥ 80% | ≥ 80% | ≥ 80% | ≥ 80% | ≥ 80% |  | ≥ 80% |  | ≥ 80% | 
CCS(=O)(=O)c1cc(-c2ccc(Cl)cc2)sc1-c1nc2cc(SC(F)(F)F)ncc2n1C [Example P-15] | ≥ 80% | ≥ 80% | ≥ 80% | ≥ 80% | ≥ 80% | ≥ 80% |  | ≥ 80% | ≥ 80% | ≥ 80% | 
